Converted amounts (≈) assume the structure as drawn.
Key:
MCF7 = test: Cytotoxicity against human MCF7 cells after 72 hrs by MTT assay; format: functional, cell-based; conditions: MCF7, 72 h
[1] = Cytotoxicity against human Hep3B cells after 72 hrs by MTT assay; format: functional, cell-based, Hep 3B2
MDA-MB-231 = test: Cytotoxicity against human MDA-MB-231 cells after 72 hrs by MTT assay; format: functional, cell-based; conditions: MDA-MB-231, 72 h
[2] = tested on: Human immunodeficiency virus 1; test: Antiviral activity against HIV1 3B infected in H9 cells assessed as inhibition of viral replication by p24 antigen ELISA; format: functional, organism-based; conditions: Human immunodeficiency virus 1, 3B, H9; read-out: EC50
[3] = Therapeutic index, ratio of IC50 for human H9 cells to EC50 for HIV 3B; format: cell-based; conditions: read-out: TI
[4] = Oral bioavailability in rat; format: ADME, organism-based; conditions: in vivo
[5] = tested on: Human immunodeficiency virus 1; test: Antiviral activity against HIV1 infected in human CEM-SS cells assessed as inhibition of viral replication; format: functional, organism-based; conditions: Human immunodeficiency virus 1, CEM-SS
[6] = tested on: Human immunodeficiency virus 1; test: Antiviral activity against HIV1 PI-R; format: functional, organism-based; conditions: Human immunodeficiency virus 1, PI-R
[7] = tested on: Human immunodeficiency virus 1; test: Antiviral activity against HIV1 NL4-3; format: functional, organism-based; conditions: Human immunodeficiency virus 1, NL4-3
melanoma (human) = test: Growth inhibition of human melanoma cells; conditions: Melanoma tumor cell line
[8] = Growth inhibition of human colon cancer cells; format: functional; conditions: Cancer cell lines
[9] = Growth inhibition of human leukemia cells; format: functional; conditions: Leukemia cell
[10] = Growth inhibition of human renal cancer cells; format: functional; conditions: Cancer cell lines
[11] = Growth inhibition of human melanoma cells; format: functional; conditions: Melanoma cell
[12] = Growth inhibition of human lung cancer cells; format: functional; conditions: Cancer cell lines
[13] = Growth inhibition of human ovarian cancer cells; format: functional; conditions: Cancer cell lines
[14] = Growth inhibition of human CNS cancer cells; format: functional; conditions: Cancer cell lines

O=C1C=CC(O)(c2cc(=O)c3c(ccc4ccccc43)o2)C=C1
IC50 (MCF7): 0.66 µg/mL (≈ 2.17 µM) | IC50 [1]: 0.3 µg/mL (≈ 0.986 µM) | IC50 (MDA-MB-231): 0.39 µg/mL (≈ 1.28 µM)

Cc1c(CO)c(=O)oc2c3c(ccc12)OC(C)(C)[C@H](OC(=O)C12CCC(C)(C(=O)O1)C2(C)C)[C@@H]3OC(=O)C12CCC(C)(C(=O)O1)C2(C)C (some centres not stated)
EC50 [2]: 0.0042 µM | selectivity ratio [3]: 6000 | bioavailability [4]: 15%

Cc1cc(=S)oc2c3c(ccc12)OC(C)(C)[C@H](OC(=O)C12CCC(C)(C(=O)O1)C2(C)C)[C@@H]3OC(=O)C12CCC(C)(C(=O)O1)C2(C)C (some centres not stated)
EC50 [5]: 0.064 µM

CC(C)C[C@@H](NC(=O)[C@]12CCC(C)(C)C=C1[C@H]1CC[C@@H]3[C@@]4(C)CC[C@H](OC(=O)CC(C)(C)C(=O)O)C(C)(C)[C@@H]4CC[C@@]3(C)[C@]1(C)CC2)C(=O)O
EC50 [6]: 0.021 µM | EC50 [7]: 0.0085 µM

O=C1c2ccsc2C(=O)c2sc(CO)cc21
GI50 (melanoma (human)): 0.0182 µM

COC(=O)[C@]12OC[C@]34[C@H]([C@@H](O)[C@@H]1O)[C@@]1(C)CC(=O)C(O)=C(C)[C@@H]1C[C@H]3OC(=O)[C@H](OC(=O)/C=C(/C)C(F)(F)F)[C@@H]24
GI50 [8]: 0.1 µM | GI50 [9]: 0.1 µM | GI50 [10]: 0.1 µM | GI50 [11]: 0.1 µM | GI50 [12]: 0.1 µM | GI50 [13]: 0.1 µM | GI50 [14]: 0.1 µM
